Literature values in patent US20240228797A1, “LIQUID REPELLENT SLIPPERY SURFACES AND METHODS OF PREPARATION THEREOF” (priority 2021, published 2024).

water solubility: extremely low water solubility
Compound: CC(C)CCCC(C)CCCC(C)CCCCC(C)CCCC(C)CCCC(C)C (stereo not shown) [Squalane, squalane]
